Patent US20250197368A1 (priority 2020, published 2025)
“And” between values parts separate entries of the source, which are not always exact repeats. Identical values can stand only once.

Columns and labels:
[1] = system: rat brain benzodiazepine binding sites on GABAAR; assay: Rat brain receptor occupancy assay ([3H]flumazenil binding); assay type: in vivo; settings: for occupancy of rat brain GABAA receptors (benzodiazepine binding sites): mean±SEM
Description: The occupancy of rat brain benzodiazepine binding sites on GABAAR by compound was measured by its ability to inhibit the ex vivo binding of [^3H]Ro15-1788 ([^3H] flumazenil) in brain samples from rats dosed with the test compound.
Male Sprague Dawley rats (c. 200-300 g) were used for the studies. All animals were acclimatized 5-7 days before dosing and were handled and weighed prior to treatments.
Rats (3 to 6 per group) were dosed p.o. with either the vehicle or the test compound suspended in vehicle (doses of 0.1 to 10 mg/kg) at a volume of 5 mL per kg of body weight. To block all benzodiazepine binding sites and therefore define the level of non-specific binding of [^3H]Ro15-1788, a separate group of animals received a dose of 5 mg/kg p.o. of bretazenil (5 mL/kg) made up in 70% PEG, 30 minutes before the animals were killed.
At predetermined time intervals, animals were culled via stunning and cervical dislocation. Brain tissues were harvested promptly, and each left and right hemisphere were snap frozen and stored at −80° C.
On the day of the brain samples analysis, each left hemisphere was weighed and homogenized in 8 volumes of ice-cold 10 mM potassium phosphate buffer (pH 7.4). 300 μL of the mixture was further diluted by adding it to a tube containing 1050 μL of assay buffer and [^3H] flumazenil further added to make a total volume of 1500 μL and achieve a final concentration of 4 nM, mixing immediately and incubating on ice.
Following 20 seconds incubation time, the sample was rapidly filtered through Whatman GF/B filter in triplicates (500 μL/filter) using a vacuum filtration manifold. The filters were subsequently washed with 10 mL of ice cold 50 mM Tris buffer (pH 7.4) and then placed into scintillation vials containing scintillation fluid. Filter-bound radioactivity was counted on a TriCarb2900 scintillation counter.
In each experiment, the value of nonspecific binding defined using bretazenil was subtracted from all groups to give values of specific binding.
The percent GABAAR occupancy of the test compound at a specific dose and treatment time was calculated as the percentage by which the specific binding in the vehicle treated group was inhibited by the drug. Therefore, the % occupancy of the modulator in drug-treated animals was expressed as: 100−((Average test compound−Average bretazenil)/(Average vehicle−Average Bretazenil)*100) where ‘average test compound’, ‘average bretazenil’ and ‘average vehicle’ are the average counts in test compound-, bretazenil- and vehicle-treated animals, respectively.

[2] = target: human α2β3γ2 GABAARs (benzodiazepine site) (Homo sapiens (Human), UniProt P18507+P47869); assay: In vitro radioligand binding assay ([3H]Ro15-1788 displacement), α2-GABAAR Ki
human α2β3γ2 GABAARs (benzodiazepine site), sequence (P47869 29-451): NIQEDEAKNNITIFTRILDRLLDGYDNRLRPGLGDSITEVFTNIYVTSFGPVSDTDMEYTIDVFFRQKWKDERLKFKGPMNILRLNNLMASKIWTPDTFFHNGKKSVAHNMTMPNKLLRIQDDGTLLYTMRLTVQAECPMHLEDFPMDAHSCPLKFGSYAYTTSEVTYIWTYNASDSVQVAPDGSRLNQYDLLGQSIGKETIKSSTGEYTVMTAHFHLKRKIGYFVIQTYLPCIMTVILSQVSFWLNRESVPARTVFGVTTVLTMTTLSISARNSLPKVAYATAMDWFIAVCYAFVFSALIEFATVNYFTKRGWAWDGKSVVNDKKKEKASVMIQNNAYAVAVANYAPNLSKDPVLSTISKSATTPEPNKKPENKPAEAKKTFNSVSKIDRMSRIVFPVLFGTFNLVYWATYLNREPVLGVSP
human α2β3γ2 GABAARs (benzodiazepine site), sequence (P28472 26-473 partner): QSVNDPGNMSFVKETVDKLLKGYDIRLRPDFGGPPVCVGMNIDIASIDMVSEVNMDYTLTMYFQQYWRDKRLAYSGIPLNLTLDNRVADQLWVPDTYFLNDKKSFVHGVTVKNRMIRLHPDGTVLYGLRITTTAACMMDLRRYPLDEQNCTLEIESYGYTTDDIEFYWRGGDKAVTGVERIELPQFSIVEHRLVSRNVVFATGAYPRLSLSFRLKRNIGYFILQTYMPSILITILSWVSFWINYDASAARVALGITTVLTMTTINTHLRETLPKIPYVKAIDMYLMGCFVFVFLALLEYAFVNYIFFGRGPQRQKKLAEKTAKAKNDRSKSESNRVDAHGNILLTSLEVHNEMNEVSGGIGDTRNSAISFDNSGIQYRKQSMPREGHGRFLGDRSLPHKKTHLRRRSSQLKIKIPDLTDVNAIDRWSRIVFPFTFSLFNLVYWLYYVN
human α2β3γ2 GABAARs (benzodiazepine site), sequence (P18507 40-475): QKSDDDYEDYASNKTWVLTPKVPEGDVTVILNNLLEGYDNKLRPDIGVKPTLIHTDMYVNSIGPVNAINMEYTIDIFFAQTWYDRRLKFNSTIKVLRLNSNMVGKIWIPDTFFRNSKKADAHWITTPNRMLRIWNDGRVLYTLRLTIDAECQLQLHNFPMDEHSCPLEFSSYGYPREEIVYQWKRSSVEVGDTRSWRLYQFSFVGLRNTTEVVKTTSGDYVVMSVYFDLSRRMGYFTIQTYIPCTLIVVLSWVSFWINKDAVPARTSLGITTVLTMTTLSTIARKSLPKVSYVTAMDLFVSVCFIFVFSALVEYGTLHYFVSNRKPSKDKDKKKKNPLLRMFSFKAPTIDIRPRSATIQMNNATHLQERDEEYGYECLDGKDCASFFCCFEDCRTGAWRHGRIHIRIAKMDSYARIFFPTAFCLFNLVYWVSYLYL
Summary of the method: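 Membranes from dexamethasone-induced mouse L(tk−) cells stably expressing the human receptor were incubated 1 h at 4° C with 4 nM [3H]Ro15-1788 and graded compound; nonspecific binding with 1-3 μM TP003. Filter-bound radioactivity counted; Ki from IC50 by Cheng-Prusoff using the measured radioligand Kd.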

Row | Compound | occupancy of rat brain GABAA receptors (benzodiazepine binding sites) ([1]; 10 mg/kg p.o.) | occupancy of rat brain benzodiazepine binding sites, dose dependence ([1]; doses 0.1 to 10 mg/kg p.o.) | Ki [2] [nM] | occupancy of rat brain benzodiazepine binding sites, dose dependence ([1]; doses 0.3 to 10 mg/kg p.o.) | occupancy of rat brain GABAA receptors (benzodiazepine binding sites) ([1]; 1 mg/kg p.o.) [%]
1 | CCCNC(=O)c1c(N)c2cccc(-c3cnccc3OC)c2[nH]c1=O [Example 17, 4-Amino-8-(4-methoxy-3-pyridyl)-2-oxo-N-propyl-1H-quinoline-3-carboxamide] | 101+0.5% and 101±0.5% | dose-dependent | 1.64 |  | 
2 | CCCNC(=O)c1c(N)c2cccc(-c3cnc(C)cc3OC)c2[nH]c1=O [Example 18, 4-Amino-8-(4-methoxy-6-methyl-3-pyridyl)-2-oxo-N-propyl-1H-quinoline-3-carboxamide] |  |  | 9.77 | dose-dependent | 
3 | CCCNC(=O)c1c(N)c2cccc(-c3nc(C)ncc3F)c2[nH]c1=O [Example 40, 4-Amino-8-(5-fluoro-2-methyl-pyrimidin-4-yl)-2-oxo-N-propyl-1H-quinoline-3-carboxamide] |  | dose-dependent | 1.19 |  | 97.3±2.0
